Measured values reported in patent US8912216B2, “Hetaryl-[1,8]naphthyridine derivatives” (Merck Patent GmbH, priority 2010, dated 2014).
Structures can show the parent of a compound that is named as a salt. Where two headings read alike, the source gives them in different places.

Key:
GST-ALK5 = molecular target: T1, GST-ALK5 (Homo sapiens, UniProt P36897); assay: In-vitro (enzyme) kinase assay, 384-well flashplate (Example 36); assay type: biochemical; settings: GST-ALK5, GST-SMAD2 substrate, 3 mM ATP, 30° C., 45 min; read-out: TβR activity (Example 36)
T1 sequence (P36897 34-503): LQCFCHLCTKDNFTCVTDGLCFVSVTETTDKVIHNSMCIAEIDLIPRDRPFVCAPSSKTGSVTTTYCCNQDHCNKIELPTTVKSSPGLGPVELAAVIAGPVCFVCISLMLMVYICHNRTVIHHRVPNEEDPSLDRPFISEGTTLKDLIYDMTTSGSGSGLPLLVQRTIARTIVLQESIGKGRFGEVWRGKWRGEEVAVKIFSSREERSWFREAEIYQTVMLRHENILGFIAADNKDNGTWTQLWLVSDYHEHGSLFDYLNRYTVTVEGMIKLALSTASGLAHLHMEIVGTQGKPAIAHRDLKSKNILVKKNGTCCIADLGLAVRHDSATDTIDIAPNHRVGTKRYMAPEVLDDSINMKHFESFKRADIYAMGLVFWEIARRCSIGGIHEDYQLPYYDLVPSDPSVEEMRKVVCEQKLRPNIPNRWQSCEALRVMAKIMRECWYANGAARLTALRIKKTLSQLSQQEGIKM
Procedure: In-vitro (Enzyme) Assay for Determination of the Efficacy of Inhibitors of the Inhibition of TGF-beta-Mediated Effects
The kinase assay was carried out as 384-well flashplate assay. 31.2 nM of GST-ALK5, 439 nM of GST-SMAD2 and 3 mM of ATP (with 0.3 μCi of ^33P-ATP/well) were incubated in a total volume of 35 μl (20 mM of HEPES, 10 mM of MgCl2, 5 mM of MnCl2, 1 mM of DTT, 0.1 of BSA, pH 7.4) without or with test substance (5-10 concentrations) at 30° C. for 45 min. The reaction was stopped using 25 μl of 200 mM EDTA solution, filtered with suction at room temperature after 30 min, and the wells were washed with 3 times 100 μl of 0.9% NaCl solution. Radioactivity was measured in the TopCount. The IC50 values were calculated using RS1.

[1] = test system: TGF-beta-induced phosphorylation of Smad2 and Smad3 in Mv1-Lu cells; assay: Inhibition of Smad2/3 phosphorylation in Mv1Lu cells (Example 35A); assay type: cell-based, mink Mustela vison; settings: Neogale vison, read-out: TβR activity (Example 35A)
Procedure: Inhibition of Smad2/3 Phosphorylation in Mv1Lu Cells by TGF-bta Receptor I Kinase Inhibitors
This assay was used to determine the inhibitory potency of compounds on TGF-beta-induced phosphorylation of Smad2 (Ser465/467) and Smad3 (Ser423/425). Mv1-Lu cells (lung epithelial cell line from mink Mustela vison; ATCC number: CCL-64) were seeded in DMEM (Invitrogen) supplemented with 10% fetal bovine serum (Pan Biotech) at a defined cell density in 24-well or 96-well plates (24-well plate: 1.5×10^5 cells per well; 96-well plate: 4×10^4 cells per well). Cell cultures were incubated in DMEM at 37° C. and 10% CO2. On the next day, the medium was replaced and cells were serum-starved for 16-20 hours. The following day, serial dilutions of compounds were added to the wells, pre-incubated for 1.5 hrs before recombinant TGF-beta 1 ligand (final concentration 5 ng/ml; R&D systems) was added. After one hour of ligand stimulation, lysates were prepared and analyzed using an enzyme-linked immunosorbent assay kit (PathScan Phospho-Smad2 Kit, Cell Signaling Technologies). The ELISA detects phosphorylated Smad2 as well as phosphorylated Smad3 with the phospho-specific antibody. TGF-beta stimulated cells and unstimulated cells served as positive and negative controls (100% and background control). The concentration of the vehicle DMSO was kept constant at 0.2% (v/v) in all wells. Dose-response relationships were fitted using curve fitting algorithms of the RS1 statistics software package (Brooks Automation Inc. RS/1—Statistical Tools Handbook. Release 6.2) to determine the concentration at which half-maximal inhibition (IC50) of Smad2/3 phosphorylation was achieved.

[2] = Mv1-Lu cells, TGF-beta 1 5 ng/ml, phospho-Smad2/3 ELISA

Row | SMILES | IC50 (GST-ALK5) [µM] | IC50 [1, 2] [µM] | IC50 [1] [µM]
1 | Fc1ccc(C(F)(F)F)cc1-c1cc(-c2cncc(-c3cnn(CCN4CCCC4)c3)c2)c2cccnc2n1 [compound 19, 2-(2-Fluoro-5-trifluoromethyl-phenyl)-4-{5-[1-(2-pyrrolidin-1-yl-ethyl)-1H-pyrazol-4-yl]-pyridin-3-yl}-[1,8]naphthyridine] | < 0.1 | < 0.1 | 
2 | Fc1ccccc1-c1cc(-c2cncc(-c3cnn(CCN4CCCC4)c3)c2)c2cccnc2n1 [compound 24, 2-(2-Fluoro-phenyl)-4-{5-[1-(2-pyrrolidin-1-yl-ethyl)-1H-pyrazol-4-yl]-pyridin-3-yl}-[1,8]naphthyridine] | < 0.1 | < 0.1 | 
3 | CN1CCC(n2cc(-c3cncc(-c4cc(-c5cc(Cl)ccc5F)nc5ncccc45)c3)cn2)CC1 [compound 25, 2-(5-chloro-2-fluoro-phenyl)-4-{5-[1-(1-methyl-piperidin-4-yl)-1H-pyrazol-4-yl]-pyridin-3-yl}-[1,8]naphthyridine] | < 0.1 |  | < 0.1
4 | Fc1ccc(F)c(-c2cc(-c3cncc(-c4cnn(CCN5CCCC5)c4)c3)c3cccnc3n2)c1 [compound 26, 2-(2,5-Difluoro-phenyl)-4-{5-[1-(2-pyrrolidin-1-yl-ethyl)-1H-pyrazol-4-yl]-pyridin-3-yl}-[1,8]naphthyridine] | < 0.1 | < 0.1 | 
5 | Fc1ccccc1-c1cc(-c2cncc(-c3cnn(C4CCNCC4)c3)c2)c2cccnc2n1 [compound 29, 2-(2-Fluoro-phenyl)-4-[5-(1-piperidin-4-yl-1H-pyrazol-4-yl)-pyridin-3-yl]-[1,8]naphthyridine dihydrochloride] | < 0.1 |  | < 0.1
6 | CN1CCC(n2cc(-c3cncc(-c4cc(-c5ccccc5F)nc5ncccc45)c3)cn2)CC1 [compound 30, 2-(2-fluoro-phenyl)-4-{5-[1-(1-methyl-piperidin-4-yl)-1H-pyrazol-4-yl]-pyridin-3-yl}-[1,8]naphthyridine] | < 0.1 | < 0.1 | 
7 | Cn1cc(-c2cc(-c3cc(-c4cc(Cl)ccc4F)nc4ncccc34)cnc2N)cn1 [compound 31, 5-[2-(5-chloro-2-fluoro-phenyl)-[1,8]naphthyridin-4-yl]-3-(1-methyl-1H-pyrazol-4-yl)-pyridin-2-ylamine] | 1 to 10 | > 10 | 
8 | OCCn1cc(-c2cncc(-c3cc(-c4cc(C(F)(F)F)ccc4F)nc4ncccc34)c2)cn1 [compound 37, 2-(4-{5-[2-(2-Fluoro-5-trifluoromethyl-phenyl)-[1,8]naphthyridin-4-yl]-pyridin-3-yl}-pyrazol-1-yl)-ethanol] | < 0.1 | 0.1 to 1 | 
9 | OCCN1CCC(n2cc(-c3cncc(-c4cc(-c5cc(Cl)ccc5F)nc5ncccc45)c3)cn2)CC1 [compound 45, 2-[4-(4-{5-[2-(5-Chloro-2-fluoro-phenyl)-[1,8]naphthyridin-4-yl]-pyridin-3-yl}-pyrazol-1-yl)-piperidin-1-yl]-ethanol] | < 0.1 | < 0.1 | 
10 | CCN1CCC(n2cc(-c3cncc(-c4cc(-c5cc(Cl)ccc5F)nc5ncccc45)c3)cn2)CC1 [compound 46, 2-(5-Chloro-2-fluoro-phenyl)-4-{5-[1-(1-ethyl-piperidin-4-yl)-1H-pyrazol-4-yl]-pyridin-3-yl}-[1,8]naphthyridine] | < 0.1 | < 0.1 | 
11 | Fc1ccc(F)c(-c2cc(-c3cncc(-c4cnn(C5CCNCC5)c4)c3)c3cccnc3n2)c1 [compound 47, 2-(2,5-Difluoro-phenyl)-4-[5-(1-piperidin-4-yl-1H-pyrazol-4-yl)-pyridin-3-yl]-[1,8]naphthyridine] | < 0.1 | < 0.1 | 
12 | Cc1cccc(-c2cc(-c3cncc(-c4cnn(C5CCN(C)CC5)c4)c3)c3cccnc3n2)n1 [compound 49, 4-{5-[1-(1-Methyl-piperidin-4-yl)-1H-pyrazol-4-yl]-pyridin-3-yl}-2-(6-methyl-pyridin-2-yl)-[1,8]naphthyridine] | < 0.1 | < 0.1 | 
13 | COCCN1CCC(n2cc(-c3cncc(-c4cc(-c5cc(F)ccc5F)nc5ncccc45)c3)cn2)CC1 [compound 50, 2-(2,5-Difluoro-phenyl)-4-(5-{1-[1-(2-methoxy-ethyl)-piperidin-4-yl]-1H-pyrazol-4-yl}-pyridin-3-yl)-[1,8]naphthyridine] | < 0.1 | < 0.1 | 
14 | CN1CCC(n2cc(-c3cncc(-c4cc(-c5cc(Cl)ccc5F)nc5ncccc45)n3)cn2)CC1 [compound 51, 2-(5-Chloro-2-fluoro-phenyl)-4-{6-[1-(1-methyl-piperidin-4-yl)-1H-pyrazol-4-yl]-pyrazin-2-yl}-[1,8]naphthyridine] | < 0.1 | < 0.1 | 

The next lines start with results.

Row | IC50 (GST-ALK5) [µM] | IC50 [1, 2] [µM] | SMILES | IC50 [1] [µM]
15 | > 10 | > 10 | Fc1ccc(Cl)cc1-c1cc(-c2ccnc(-c3ccccc3)c2)c2cccnc2n1 [compound 20, 2-(5-Chloro-2-fluoro-phenyl)-4-(2-phenyl-pyridin-4-yl)-[1,8]naphthyridine] | 
16 | < 0.1 | < 0.1 | Fc1ccc(Cl)cc1-c1cc(-c2cncc(-c3cnn(CCN4CCCC4)c3)c2)c2cccnc2n1 [compound 21, 2-(5-Chloro-2-fluoro-phenyl)-4-{5-[1-(2-pyrrolidin-1-yl-ethyl)-1H-pyrazol-4-yl]-pyridin-3-yl}-[1,8]naphthyridine] | 
17 | 1 to 10 | 1 to 10 | Cn1cc(-c2cc(-c3cc(-c4cc(Cl)ccc4F)nc4ncccc34)c[n+]([O-])c2)cn1 [compound 22, 2-(5-chloro-2-fluoro-phenyl)-4-[5-(1-methyl-1H-pyrazol-4-yl)-1-oxy-pyridin-3-yl]-[1,8]naphthyridine] | 
18 | < 0.1 | < 0.1 | CN1CCC(n2cc(-c3cncc(-c4cc(-c5cc(C(F)(F)F)ccc5F)nc5ncccc45)c3)cn2)CC1 [compound 23, 2-(2-fluoro-5-trifluoromethyl-phenyl)-4-{5-[1-(1-methyl-piperidin-4-yl)-1H-pyrazol-4-yl]-pyridin-3-yl}-[1,8]naphthyridine] | 
19 | < 0.1 | 0.1 to 1 | Fc1ccc(C(F)(F)F)cc1-c1cc(-c2cncc(-c3cnn(CCN4CCOCC4)c3)c2)c2cccnc2n1 [compound 34, 2-(2-Fluoro-5-trifluoromethyl-phenyl)-4-{5-[1-(2-morpholin-4-yl-ethyl)-1H-pyrazol-4-yl]-pyridin-3-yl}-[1,8]naphthyridine] | 
20 | < 0.1 | < 0.1 | CN1CCC(n2cc(-c3cncc(-c4cc(-c5cc(F)ccc5F)nc5ncccc45)c3)cn2)CC1 [compound 35, 2-(2,5-Difluoro-phenyl)-4-{5-[1-(1-methyl-piperidin-4-yl)-1H-pyrazol-4-yl]-pyridin-3-yl}-[1,8]naphthyridine] | 
21 | < 0.1 | < 0.1 | COCCN1CCC(n2cc(-c3cncc(-c4cc(-c5cc(Cl)ccc5F)nc5ncccc45)c3)cn2)CC1 [compound 44, 2-(5-chloro-2-fluoro-phenyl)-4-(5-{1-[1-(2-methoxy-ethyl)-piperidin-4-yl]-1H-pyrazol-4-yl}-pyridin-3-yl)-[1,8]naphthyridine] | 
22 | < 0.1 | 0.1 to 1 | Fc1ccc(F)c(-c2cc(-c3cncc(-c4cnn(CCCN5CCOCC5)c4)c3)c3cccnc3n2)c1 [compound 48, 2-(2,5-Difluoro-phenyl)-4-{5-[1-(3-morpholin-4-yl-propyl)-1H-pyrazol-4-yl]-pyridin-3-yl}-[1,8]naphthyridine] | 
